- melting point: 103 to 104 °C
SMILES: COC1(c2ccc(C(F)(F)F)cc2CN(Cc2cc(C(F)(F)F)cc(C(F)(F)F)c2)c2nnn(C)n2)CCCCCC1 [Example 52, N-(2-(1-methoxycycloheptyl)-5-(trifluoromethyl)benzyl)-N-(3,5-bis(trifluoromethyl)benzyl)-2-methyl-2H-tetrazol-5-amine]
